Assay [1] addresses Spermine synthase (Rattus norvegicus). Put plainly: Inhibition of Spermidine aminopropyltransferase (SAPT) in rat liver.
A further assay concerns the target T1, Spermidine synthase (Rattus norvegicus, UniProt Q99MI5).
T1 sequence (Q99MI5 whole entry): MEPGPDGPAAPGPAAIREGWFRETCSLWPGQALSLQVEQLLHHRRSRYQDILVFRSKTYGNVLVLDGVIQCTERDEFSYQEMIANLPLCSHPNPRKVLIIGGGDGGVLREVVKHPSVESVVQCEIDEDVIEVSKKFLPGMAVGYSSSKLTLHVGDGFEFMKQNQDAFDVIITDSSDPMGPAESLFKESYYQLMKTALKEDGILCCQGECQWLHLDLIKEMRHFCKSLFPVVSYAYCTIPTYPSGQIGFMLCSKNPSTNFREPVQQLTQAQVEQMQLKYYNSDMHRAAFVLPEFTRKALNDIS
Put plainly: Inhibition of Putrescine aminopropyltransferase (PAPT) in rat liver.

For assay [2], the target named is T2, S-adenosylmethionine decarboxylase proenzyme (Homo sapiens, UniProt P17707).
T2 sequence (P17707 whole entry): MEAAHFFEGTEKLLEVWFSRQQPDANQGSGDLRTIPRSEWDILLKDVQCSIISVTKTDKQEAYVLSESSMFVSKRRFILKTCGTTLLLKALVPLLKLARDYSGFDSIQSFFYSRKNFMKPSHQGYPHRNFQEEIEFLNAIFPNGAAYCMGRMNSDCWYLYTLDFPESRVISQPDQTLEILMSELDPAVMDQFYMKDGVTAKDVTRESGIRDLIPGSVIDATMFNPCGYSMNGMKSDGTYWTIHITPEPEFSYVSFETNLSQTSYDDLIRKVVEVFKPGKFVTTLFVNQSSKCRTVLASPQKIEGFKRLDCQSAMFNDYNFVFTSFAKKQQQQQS
Nature of the assay: Inhibitory activity against S-adenosyl-L-methionine decarboxylase was determined; NI means No inhibition.

The next assay addresses T3, Ornithine decarboxylase (Rattus norvegicus, UniProt P09057).
T3 sequence (P09057 whole entry): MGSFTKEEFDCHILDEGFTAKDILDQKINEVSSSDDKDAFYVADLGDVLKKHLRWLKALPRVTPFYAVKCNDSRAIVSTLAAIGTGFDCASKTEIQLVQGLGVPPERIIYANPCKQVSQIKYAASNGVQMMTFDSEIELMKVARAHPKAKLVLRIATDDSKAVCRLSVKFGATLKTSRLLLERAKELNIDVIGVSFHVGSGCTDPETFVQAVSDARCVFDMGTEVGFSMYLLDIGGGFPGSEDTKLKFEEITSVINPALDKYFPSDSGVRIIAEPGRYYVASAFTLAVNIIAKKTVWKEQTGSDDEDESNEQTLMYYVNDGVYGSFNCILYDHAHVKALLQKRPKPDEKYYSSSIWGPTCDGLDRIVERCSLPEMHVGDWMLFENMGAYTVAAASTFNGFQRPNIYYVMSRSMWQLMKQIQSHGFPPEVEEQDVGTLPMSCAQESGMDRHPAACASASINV
Nature of the assay: Inhibition of Ornithine decarboxylase in rat liver; Not inhibited.

A value given as a limit tells only on which side of the number the result lay.

As usually defined, the IC50 is the concentration that gives 50% inhibition. As to `NCCCNCCCCCC(CCN)SC[C@H]1OC(n2cnc3c(N)ncnc32)[C@H](O)[C@@H]1O` (some centres undefined), the figures for the IC50 (in assay [1]; at Spermidine synthase) were 50 nM and > 10 µM, respectively.
`NCCCCNC(CCN)CC[C@H]1OC(n2cnc3c(N)ncnc32)[C@H](O)[C@@H]1O` (some centres undefined): the IC50 result is on record as “Not Active” in assay [2] and “No inhibition” against Ornithine decarboxylase.

These data come from ChEMBL document CHEMBL1128469, “Synthesis and biochemical evaluation of adenosylspermidine, a nucleoside-polyamine adduct inhibitor of spermidine synthase” (J Med Chem, 1995).
